Test results from patent US20150283093A1, “NANOENCAPSULATION OF CURCUMINOID METABOLITES - PROCESS, COMPOSITION AND APPLICATIONS THEREOF” (priority 2014, published 2015).

Test: Superoxide radical scavenging activity (alkaline DMSO / NBT method)
Procedure: The scavenging activity towards the superoxide radical (O2^−) was measured as the inhibition of superoxide radical (O2^−) generation. The method was performed by using alkaline DMSO method. Potassium superoxide and dry DMSO were allowed to stand in contact for 24 h and the solution was filtered immediately before use. […] Ascorbic acid was used as standard. The experiment was repeated in triplicate and the percentage scavenging was calculated by using the formula:
Inhibition (%)=[(Control−Test)/Control]×100

In the case of `Cc1c(C)c2c(c(C)c1O)CCC(C)(C(=O)O)O2` (centres unmarked) [TROLOX], the “scavenging of superoxide radical (O2−), concentration dependence” value is reported as “concentration dependant scavenging” and the “scavenging potential of superoxide radical (O2−)” value (at 100 μM concentration) is reported as 47.80%.
